# Measured values taken from patent publication US10844023B2 (Washington University, priority 2017, dated 2020).
# Columns and labels:
# [1] = Solubility of library compounds in DMSO; type: physicochemical; conditions: stock concentration of 10 mM in DMSO
# Protocol: A pharmacophore model was generated based on the interactions of HR1 and HR2 domains in the calculated structural model of Mfn2 in the closed conformation. The key features included hydrophobic interactions involving Mfn2 HR1: Val372 and Met376, and aromatic interactions and hydrogen bonding involving Mfn2 HR1 His380. […] A library comprising ˜14 million commercially available compounds was prepared in silico and evaluated using PHASE to fit these criteria. Top ranked hits were clustered, and filtered based on pharmacological properties using Qikprop. The top 55 (see TABLE 4) commercially available small molecules conforming to the model were selected for functional screening and purchased in 1 mg aliquots. Each compound was dissolved to a stock concentration of 10 mM in DMSO and applied to Mfn2 null MEFs overnight at a final concentration of […]. Eleven of the library members were not soluble in DMSO at the required concentration. The 44 fully soluble compounds were screened in groups of 6 at a time for cytotoxicity (calcein AM/ethidium homodimer staining; ThermoFisher LIVE/DEAD Assay cat #L3224) and fusogenicity (increase in mitochondrial aspect ratio; MitoTracker Orange staining) compared to cells treated overnight with […] of the parent HR1 367-384 mitofusin agonist peptide (positive control) or vehicle (DMSO). Images were acquired by confocal microscopy. Each compound was scored for fusogenicity (see e.g., FIG. 24A) and % cell death (see e.g., FIG. 24B). Pharmacophore model fit generally correlated with actual fusogenic activity (Pearson correlation coefficient r=0.214; see e.g., FIG. 24A, inset; TABLE 4).
# [2] = test system: Mfn2 null MEFs; test: Mitochondrial elongation (aspect ratio) fusogenicity assay; type: cell-based, mouse; set-up: % long compare to B: dose or concentration left out as unconfirmed; conditions: for % long compare to B: mitochondrial elongation relative to Cpd B (B01 = 100), compound overnight as printed (FIG. 48); for % long compare to B / Aspect ratio (MEAN ± SEM): Mfn2 null MEFs; for Aspect ratio (MEAN ± SEM): overnight, treatment with 1 μM compound (footnote); for Fusogenicity Rank: rank order of aspect ratio among 44 soluble library compounds
Structure (SMILES),Solubility in DMSO at required concentration [1],% long compare to B [2] [%],other results
"Cc1ccc(CSCCNC(=O)C2CCN(c3ccc4nnc(C(F)(F)F)n4n3)CC2)cc1 [N-(2-{[(4-methylphenyl)methyl]sulfanyl}ethyl)-1-[3-(trifluoromethyl)-[1,2,4]triazolo[4,3-b]pyridazin-6-yl]piperidine-4-carboxamide]",Insol- uble,,
"Cc1cc(NC(=O)C(C)SCC(=O)Nc2ccc(NC(C)c3ccccc3)cc2)no1 (centres unmarked) [N-(5-methyl-1,2-oxazol-3-yl)-2-{[({4-[(1-phenylethyl)amino]phenyl}carbamoyl)methyl]sulfanyl}propanamide]",Insol- uble,,
"CCc1nnc(SC(CC)C(=O)N(CC)c2cccc(C)c2)c2cc3occc3n12 (centres unmarked) [N-ethyl-2-({12-ethyl-5-oxa-1,10,11-triazatricyclo[6.4.0.0^2,6]dodeca-2(6),3,7,9,11-pentaen-9-yl}sulfanyl)-N-(3-methylphenyl)butanamide]",Insol- uble,,
"CCC(Sc1nc2cc(OC)c(OC)cc2c2nc(CCn3nc(C)cc3C)nn12)C(=O)Nc1ccc(F)cc1 (centres unmarked) [2-({2-[2-(3,5-dimethyl-1H-pyrazol-1-yl)ethyl]-8,9-dimethoxy-[1,2,4]triazolo[1,5-c]quinazolin-5-yl]sulfanyl)-N-(4-fluorophenyl)butanamide]",Insol- uble,,
"Cc1ccc(SC(C)C(=O)Nc2ccc(NS(=O)(=O)c3ccc4c(c3)OCCCO4)cc2)cc1 (centres unmarked) [N-[4-(3,4-dihydro-2H-1,5-benzodioxepine-7-sulfonamido)phenyl]-2-[(4-methylphenyl)sulfanyl]propanamide]",Insol- uble,,
"Cc1ccc(C(=O)C(C)Sc2nnc3c(=O)n(-c4ccccc4)ccn23)cc1C (centres unmarked) [3-{[1-(3,4-dimethylphenyl)-1-oxopropan-2-yl]sulfanyl}-7-phenyl-7H,8H-[1,2,4]triazolo[4,3-a]pyrazin-8-one]",Insol- uble,,
"CC(Sc1nc(C2CC2)nc2c1c(=O)[nH]c(=O)n2C1CC1)C(=O)NCC1CCCCC1 (centres unmarked) [N-(cyclohexylmethyl)-2-({2,8-dicyclopropyl-5,7-dioxo-5H,6H,7H,8H-pyrimido[4,5-d][1,3]diazin-4-yl}sulfanyl)propanamide]",Insol- uble,,
"Cc1ccc(C(=O)C(C)Sc2nnc3c(=O)n(-c4ccc(Br)cc4)ccn23)cc1C (centres unmarked) [7-(4-bromophenyl)-3-{[1-(3,4-dimethylphenyl)-1-oxopropan-2-yl]sulfanyl}-7H,8H-[1,2,4]triazolo[4,3-a]pyrazin-8-one]",Insol- uble,,
"COc1cc(Cl)c(C)cc1N1C(=O)[C@@H]2C[C@H]1CN2Cc1cccn1-c1ncccn1 [(1S,4S)-2-(4-chloro-2-methoxy-5-methylphenyl)-5-{[1-(pyrimidin-2-yl)-1H-pyrrol-2-yl]methyl}-2,5-diazabicyclo[2.2.1]heptan-3-one]",Insol- uble,,
"Cc1cc(C)nc(SCC(C)Cn2c(N3CCC(C(N)=O)CC3)nc3c2c(=O)[nH]c(=O)n3C)n1 (centres unmarked) [1-(7-{3-[(4,6-dimethylpyrimidin-2-yl)sulfanyl]-2-methylpropyl}-3-methyl-2,6-dioxo-2,3,6,7-tetrahydro-1H-purin-8-yl)piperidine-4-carboxamide]",Insol- uble,,
CC(=O)NC12CC3CC(C1)CC(C(=O)NCCSCc1ccc(C)cc1)(C3)C2 [3-acetamido-N-(2-{[(4-methylphenyl)methyl]sulfanyl}ethyl)adamantane-1-carboxamide],Insol- uble,,
"O=C(NCCSCc1ccsc1)C1CC2CCCC(C1)C2=O (centres unmarked) [B11, 9-oxo-N-(2-{[(thiophen-3-yl)methyl]sulfanyl}-ethyl)bicyclo[3.3.1]-nonane-3-carboxamide]",,23,
"Cc1ccc(SC2CCN(Cc3cc4n(n3)CCNC4)CC2)cc1 [D10, 4-[(4-methylphenyl)sulfanyl]-1-({4H,5H,6H,7H-pyrazolo[1,5-a]pyrazin-2-yl}methyl)piperidine]",,−7,
"Cc1nnc(SCCCNC(=O)c2n[nH]c3c2CN(C)CC3)s1 [drawing 216, 5-methyl-N-{3-[(5-methyl-1,3,4-thiadiazol-2-yl)sulfanyl]propyl}-1H,4H,5H,6H,7H-pyrazolo[4,3-c]pyridine-3-carboxamide]",,,Aspect ratio (MEAN ± SEM) [2]: 3.1 ± 0.3; Fusogenicity Rank [2]: 34
"c1ccc(CSCCc2nc(C3CCOC3)no2)cc1 (centres unmarked) [E07, 5-[2-(benzylsulfanyl)ethyl]-3-(oxolan-3-yl)-1,2,4-oxadiazole]",,4,
"COc1ccc(-n2ccnc2SC(C)C(=O)Nc2sc3c(c2C(N)=O)CCC3)cc1 (centres unmarked) [1-A7, 2-(2-{[1-(4-methoxyphenyl)-1H-imidazol-2-yl]sulfanyl}-propanamido)-4H,5H,6H-cyclopenta[b]thiophene-3-carboxamide]",,−24,
"COc1ccccc1-n1cnnc1SCC(=O)Nc1sc2c(c1C(N)=O)CCC2 [1-E2, 2-(2-{[4-(2-methoxyphenyl)-4H-1,2,4-triazol-3-yl]sulfanyl}acet-amido)-4H,5H,6H-cyclopenta-[b]thiophene-3-carboxamide]",,17,
"Cc1ccc(NC(=O)CC2SC(NC(c3ccc(C(C)C)cc3)c3c(O)[nH]c(=O)[nH]c3=O)=NC2=O)c(C)c1 (centres unmarked) [C11, N-(2,4-dimethylphenyl)-2-(2-{[(6-hydroxy-2,4-dioxo-1,2,3,4-tetrahydropyrimidin-5-yl)[4-(propan-2-yl)phenyl]methyl]am-ino}-4-oxo-4,5-dihydro-1,3-thiazol-5-yl)acetamide]",,−4,
"Cc1ccc(NC(=O)CC2SC(NC(c3ccc(C(C)C)cc3)c3c(O)[nH]c(=O)[nH]c3=O)=NC2=O)c(C)c1 (centres unmarked) [drawing 252, N-(2,4-dimethylphenyl)-2-(2-{[(6-hydroxy-2,4-dioxo-1,2,3,4-tetrahydropyrimidin-5-yl)[4-(propan-2-yl)phenyl]methyl]amino}-4-oxo-4,5-dihydro-1,3-thiazol-5-yl)acetamide]",,,Aspect ratio (MEAN ± SEM) [2]: 3.1 ± 0.3; Fusogenicity Rank [2]: 35
"Cc1ccc(-n2nnnc2SC(C)c2nc(-c3nnc[nH]3)no2)cc1 (centres unmarked) [drawing 215, 1-(4-methylphenyl)-5-({1-[3-(4H-1,2,4-triazol-3-yl)-1,2,4-oxadiazol-5-yl]ethyl}sulfanyl)-1H-1,2,3,4-tetrazole]",,,Aspect ratio (MEAN ± SEM) [2]: 3.4 ± 0.3; Fusogenicity Rank [2]: 27
"Cc1ccc(-n2c(SC(C)C(=O)Nc3ccnn3C(C)C)nnc2N2CCOCC2)cc1 (centres unmarked) [C01, 2-{[4-(4-methylphenyl)-5-(morpholin-4-yl)-4H-1,2,4-triazol-3-yl]sulfanyl}-N-[1-(propan-2-yl)-1H-pyrazol-5-yl]propanamide]",,16,
"Cc1ccc(-n2nnnc2SC(C)c2nc(-c3nnc[nH]3)no2)cc1 (centres unmarked) [A11, 1-(4-methylphenyl)-5-({1-[3-(4H-1,2,4-triazol-3-yl)-1,2,4-oxadiazol-5-yl]ethyl}sulfanyl)-1H-1,2,3,4-tetrazole]",,4,
"O=C(CSCc1ccc(F)cc1)N1CCc2c([nH]c3ccccc23)C1c1ccc(Cl)cc1 (centres unmarked) [C07, 1-[1-(4-chlorophenyl)-1H,2H,3H,4H,9H-pyrido[3.4-b]indol-2-yl]-2-{[(4-fluorophenyl)methyl]sulfanyl}ethan-1-one]",,29,
"CC(c1nnc(SCC(=O)Nc2sc3c(c2C(N)=O)CCC3)n1-c1ccc(F)cc1)N(C)C (centres unmarked) [1-F6, 2-[2-({5-[1-(dimethylamino)ethyl]-4-(4-fluorophenyl)-4H-1,2,4-triazol-3-yl}sulfanyl)acetamido]-4H,5H,6H-cyclopenta[b]thio-phene-3-carboxamide]",,30,
"COc1ccc(SC(C)C(=O)Nc2cc[nH]n2)cc1 (centres unmarked) [drawing 201, 2-[(4-methoxyphenyl)sulfanyl]-N-(1H-pyrazol-3-yl)propanamide]",,,Aspect ratio (MEAN ± SEM) [2]: 3.8 ± 0.4; Fusogenicity Rank [2]: 22
"NC(=O)c1c(NC(=O)CSc2nncn2-c2ccccc2)sc2c1CCC2 [1-C4, 2-{2-[(4-phenyl-4H-1,2,4-triazol-3-yl)sulfanyl]acetamido}-4H,5H,6H-cyclopenta-[b]thiophene-3-carboxamide]",,−13,
"NC(=O)c1c(NC(=O)CSc2nnc3n2CCCCC3)sc2c1CCC2 [1-A10, 2-(2-{5H,6H,7H,8H,9H-[1,2,4]triazolo[4,3-a]azepin-3-ylsulfanyl}acetamido)-4H,5H,6H-cyclopenta[b]thio-phene-3-carboxamide]",,45,
"CC(Sc1ccc(Br)cc1)C(=O)Nc1ccc2c(c1)OCCO2 (centres unmarked) [A05, 2-[(4-bromophenyl)sulfanyl]-N-(2,3-dihydro-1,4-benzodioxin-6-yl)propanamide]",,−2,
"Cc1ccc(C(C)C)c(OCCCSCc2nc3ccccc3[nH]2)c1 [drawing 200, 2-[({3-[5-methyl-2-(propan-2-yl)phenoxy]propyl}sulfanyl)methyl]-1H-1,3-benzodiazole]",,,Aspect ratio (MEAN ± SEM) [2]: 3.0 ± 0.4; Fusogenicity Rank [2]: 37
"NC(=O)c1c(NC(=O)CCCc2ccccc2)sc2c1CCC2 [pB, 2-(4-phenylbutanamido)-4H,5H,6H-cyclopenta[b]thiophene-3-carboxamide]",,6,
